From US20110021625A1, “NEURONAL CELL DEATH INHIBITOR” (LEAD CHEMICAL CO., LTD., priority 2008, published 2011)

How the values were obtained:
Assay type in all cases: cell-based, SD rats
[1] = test system: rat cerebral cortical neurons treated with Aβ(1-42); assay: Measurement of axon atrophy induced by Aβ(1-42) (phosphorylated neurofilament H immunostaining); settings: 5 μM Aβ(1-42), after 3 days each of Compounds 5, 11, 21, and 22 (1 μM), another 5 days; FIG. 6; vs control group
Procedure: Cerebral cortical neurons of SD rats (embryonic day 18) were primary cultured. The neurons were seeded in an 8-well culture slide at a density of 2.6×10^5 cells/cm^2, after 5 days, treated with 5 μM Aβ(1-42), and after another 3 days, treated with each of Compounds 5, 11, 21, and 22 (each 1 μM). After another 5 days, immunostaining was carried out. The used primary antibody was a mouse monoclonal antibody against phosphorylated neurofilament H that is a marker protein of the axon (a dilution degree of 500; Sternberger Monoclonals, MD, USA). The used secondary antibody was Alexa Fluor 488 labeled goat anti-[…] IgG (a dilution degree of 300; Molecular Probes, Carlsbad, Calif., USA). The neurons were observed under a fluorescence microscope AX-80 (Olympus, Tokyo, Japan) and the fluorescence image was obtained. The average length of the axons per neuron was measured with Neurocyte Ver. 1.5 (Toyobo, Osaka, Japan). The group without the Aβ(1-42) treatment and the administration of any medical agents was defined as a control group, and the group with the Aβ(1-42) treatment but without the administration of any medical agents was defined as a vehicle group.

[2] = test system: rat cerebral cortical neurons treated with Aβ(1-42); assay: Measurement of dendrite atrophy induced by Aβ(1-42) (MAP2 immunostaining); settings: 5 μM Aβ(1-42), after 3 days each of Compounds 5, 11, 21, and 22 (1 μM), another 5 days; FIG. 5; vs control group
Procedure: Cerebral cortical neurons of SD rats (embryonic day 18) were primary cultured. The neurons were seeded in an 8-well culture slide at a density of 2.6×10^5 cells/cm^2. After 5 days, the neurons were treated with 5 μM Aβ(1-42), and after another 3 days, treated with each of Compounds 5, 11, 21, and 22 (each 1 μM). After another 5 days, immunostaining was carried out. The used primary antibody was a rabbit polyclonal antibody against MAP2 that is as a marker protein of the dendrite (a dilution degree of 500; Chemicon, Temecula, Calif., USA). The used secondary antibody was Alexa Fluor 568 labeled goat anti-rabbit IgG (a dilution degree of 300; Molecular Probes, Carlsbad, Calif., USA). The neurons were observed under a fluorescence microscope AX-80 (Olympus, Tokyo, Japan) and the fluorescence image was obtained. The average length of the dendrites per neuron was measured with Neurocyte Ver. 1.5 (Toyobo, Osaka, Japan). The group without the Aβ(1-42) treatment and the administration of any medical agents was defined as a control group, and the group with the Aβ(1-42) treatment but without the administration of any medical agents was defined as a vehicle group.

[3] = test system: rat cerebral cortical neurons treated with Aβ(25-35); assay: Measurement of neuronal cell death induced by Aβ(25-35) (calcein AM uptake, cell viability); settings: 10 μM Aβ(25-35) and Compound 11 100 nM, 8-well culture slide, 4 days; FIG. 2; vs control group
Procedure: Cerebral cortical neurons of SD rats (embryonic day 18) were primary cultured. The neurons were seeded in a 24-well culture dish at a density of 2.86×10^5 cells/cm^2, and after 3 days, simultaneously treated with 10 μM partial peptide including the 25 to 35-amino acid residue of Aβ (hereinafter called Aβ(25-35)) and each of Compounds 1 to 5 (100 nM). After another 4 days, 6 μM calcein AM was added, the whole was incubated for 40 minutes at 37° C., and the fluorescence intensity at 485 nm was measured so that the uptake of calcein AM into the neurons was calculated to determine the cell viability. The group without the Aβ(25-35) treatment and the administration of any medical agents was defined as a control group, and the group with the Aβ(25-35) treatment but without the administration of any medical agents was defined as a vehicle group.
Separately, the neurons were seeded in an 8-well culture slide at a density of 2.14×10^5 cells/cm^2, and after 5 days, simultaneously treated with 10 μM Aβ(25-35) and Compound 11 (100 nM). After another 4 days, 6 μM calcein AM was added, and the whole was incubated for 40 minutes at 37° C. Then the neurons were fixed, and the fluorescence image was obtained under a fluorescence microscope AX-80. The uptake of calcein AM into the neurons was quantitatively analyzed with an ATTO Densitograph (ATTO, Tokyo, Japan) to determine the cell viability. […]

Row | Structure (SMILES) | axon outgrowth effect (average length of the axons per neuron) [1] | dendrite outgrowth effect (average length of the dendrites per neuron) [2] | cell viability (uptake of calcein AM, fluorescence image) [3]
1 | COc1cc2c(cc1O)C1(C#N)CCC3(OCCO3)C3=COC(C2)C31 (stereo not drawn) [Compound 22, 9-hydroxy-8-methoxy-2,3,5a,10c-tetrahydro-1H,6H-5-oxa-3-oxo-acephenanthrylene-10b-carbonitrile ethylene ketal] | axon outgrowth effect remarkably higher than that of the control group | dendrite outgrowth effect remarkably higher than that of the control group | 
2 | N#CC12CCC3(OCCO3)C3=COC(Cc4ccc(O)cc41)C32 (stereo not drawn) [Compound 11, 9-hydroxy-2,3,5a,10c-tetrahydro-1H,6H-5-oxa-3-oxo-acephenanthrylene-10b-carbonitrile ethylene ketal] |  |  | cell viability remarkably higher than that of the control group
